Reference: publication PMC12036875, “Mitochondria-targeting natural product rhein conjugated with dichloroacetate as the dual inhibitor of glycolysis and oxidative phosphorylation to off energize cancer cells and induce ROS storm” (Theranostics, 2025)

Columns and labels:
4T1 tumor tissue = test: Lactate detection in tumor tissue (ELISA); format: in vivo, Balb/c mice; details: 20 mg/kg oral, 24 days
From the text: The TAMs are the prominent components in the TEM and play a critical role in tumoral immunosuppression. Repolarization of protumor M2 phenotype into antitumor M1 phenotype is promising for malignant tumors. On the one hand, as a key metabolite fueling M2 polarization, lactate is very important in modulating the polarization state of macrophages within the tumor microenvironment. To verify that Rhein-DCA conjugate reprogrammed the metabolism of cells on solid tumors, we analyzed the expression of pPDHA1-Ser^293 protein in tumor tissues with immunohistochemical staining (IHC) (Figure 7A). […] The end product lactate of glycolysis decreased 20%, consistent with DCA's ability to reverse the Warburg effect. […] On the other hand, the ICD behavior of cancer cells also can activate TAMs into M1 polarization. Then, the release of HMGB1 was evaluated to assess the ICD effect in vivo with immunofluorescence staining (IF) (Figure 7C).
Tumor tissues were collected and homogenized in ice-cold PBS (1:10, w/v). The tissue was disrupted using sonication in ice bath (power 400 W, the duration of sonication is 3 s, the interval duration of 3 s, total sonication time of 20 min). The homogenate was centrifuged at 5000 G for 10 min at 4 °C to obtain the supernatant. The lactate content was analyzed with a lactate ELISA kit according to the manufacturer's protocol. The results were normalized to the weight of the tumor and reported as µmol lactate/g tissue.

PDK1 = biological target: T1, PDK1 (Homo sapiens, UniProt O15530); test: PDK1 kinase activity assay (ADP-Glo); format: biochemical; details: 0.08, 0.4, 2 μM; 30 min pre-incubation; effect of Rhein-DCA at 2 μM
T1 construct: purchased Promega Biotech Co., Ltd (USA)
T1 sequence (O15530 1-556): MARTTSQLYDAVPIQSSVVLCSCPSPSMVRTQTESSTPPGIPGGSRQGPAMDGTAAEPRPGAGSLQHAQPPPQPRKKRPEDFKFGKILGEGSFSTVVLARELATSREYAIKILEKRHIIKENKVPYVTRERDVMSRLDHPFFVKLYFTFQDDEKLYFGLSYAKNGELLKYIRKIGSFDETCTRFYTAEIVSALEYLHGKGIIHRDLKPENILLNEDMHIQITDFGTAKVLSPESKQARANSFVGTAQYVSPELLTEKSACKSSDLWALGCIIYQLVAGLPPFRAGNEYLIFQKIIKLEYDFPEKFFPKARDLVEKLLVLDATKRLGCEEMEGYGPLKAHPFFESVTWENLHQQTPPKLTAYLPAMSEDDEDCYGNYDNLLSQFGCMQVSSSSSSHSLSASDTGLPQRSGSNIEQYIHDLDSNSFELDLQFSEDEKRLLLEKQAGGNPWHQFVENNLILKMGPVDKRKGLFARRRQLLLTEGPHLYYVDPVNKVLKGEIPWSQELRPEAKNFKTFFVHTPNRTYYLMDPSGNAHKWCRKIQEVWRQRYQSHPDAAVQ
Description: The elevated glycolytic metabolism in cancer cells would be blocked when the activity of the gate enzyme PDH was resumed through inhibiting overexpression of PDK1, followed by a decrease in lactate and energy production (Figure 2A). ADP-Glo^TM Kinase assay was initially employed to investigate the potential of Rhein-DCA conjugate to suppress PDK1 activity in vitro. PDK1 were separately incubated with rhein, DCA, and Rhein-DCA conjugate for 30 min for better binding, then the enzymatic substrate was added to the mixture to initiate the reaction. Finally, the luminescent signal representing PDK1 activity was recorded once the detection procedures were completed. More detailed experimental information was presented in the supporting information.
The inhibitory effect of PDK1 kinase was evaluated with the […] kinase assay. Firstly, PDK1 enzyme, PDK tide, ATP, and indicated drugs (dissolved in DMSO) were dissolved in kinase buffer. Then, 5 μL of compounds (rhein, DCA and Rhein-DCA) with diverse concentrations and 10 μL of PDK1 enzyme were dispensed to the 96-well plate and incubated for 30 min at room temperature. Next, 10 μL of PDK tide/ATP mixture was added and incubated at room temperature for 60 min. Finally, to halt the reaction and deplete the remaining ATP, 25 μL of ADP-Glo™ reagent was added to each well and incubated at room temperature for 40 min. 50 μL of kinase detection reagent was added and incubated at room temperature for another 30 min. Ultimately, the luminescence signal was recorded by multi-mode microplate reader (Integration time: 1 s). The concentrations of reagents employed in this assay were as follows: […]

4T1 cells = test: Intracellular ATP detection; format: cell-based, Mouse; details: 6.25 μM, vs control
Description: Rhein-DCA conjugate achieved synergetic fatal energy depletion in tumor cells.
The intracellular ATP content was measured with PhosphoWorks™ Colorimetric ATP Assay Kit. Specifically, 4T1 cells and 293T cells were seeded in 12-well plates at a density of 2 × 10^5 cells per well and further cultured for 24 h at 37 °C in an atmosphere of 95% air and 5% CO2. For the control group, the culture medium was replaced with fresh medium. For the rhein, DCA, R + D, and Rhein-DCA groups, the medium was replaced with fresh medium containing the indicated drugs at a concentration of 6.25 μM. It should be noted that in the Rhein-DCA + CsA group, the cells were pretreated with CsA (2.5 μM) for 1 h at 37 °C before being cultured with Rhein-DCA. The cells were collected and suspended in 80 μL triton-X-100 (1% in PBS) to obtain cell lysates by twice freeze-thaw. Then the supernatant was collected after centrifugation at 9391 G for 10 min for subsequent analysis. Finally, 50 μL of supernatant was separately mixed evenly with 50 μL ATP working solution and the mixture was incubated for 30 min at room temperature. The absorbance at 570 nm was monitored with microplate reader.

Row | SMILES | decrease of tumor lactate (4T1 tumor tissue; vs vehicle) [%] | PDK1 activity (luminescent signal) (PDK1) | intracellular ATP amount (4T1 cells) | tumor lactate level, in words (4T1 tumor tissue) | tumor lactate level as percentage of the vehicle group (4T1 tumor tissue) [%]
1 | O=C(O)C(Cl)Cl [DCA, Dichloroacetate] | 20 | did not exhibit obvious differences | slight increase | – | –
2 | O=C(O)c1cc(O)c2c(c1)C(=O)c1cccc(O)c1C2=O [Rhein, 4,5-dihydroxyanthraquinone-2-carboxylic acid] | – | almost negligible | decrease | reduced tumor lactate levels | –
3 | O=C(OCCOC(=O)C(Cl)Cl)c1cc(O)c2c(c1)C(=O)c1cccc(O)c1C2=O [Rhein-DCA] | – | dramatically decreased | significant decrease | – | 44
